Article PMC3785478, “Crystal Structures of Human Muscle Fructose-1,6-Bisphosphatase: Novel Quaternary States, Enhanced AMP Affinity, and Allosteric Signal Transmission Pathway” (PLoS ONE, 2013)

Tests used:
[1] = biological target: T1, human muscle fructose-1,6-bisphosphatase (hmFru-1,6-Pase) (Homo sapiens, UniProt O00757); assay: coupled enzyme assay (G6PDH/phosphoglucose isomerase, NADP, […] nm), AMP titration; type: biochemical; details: read-out: Wild-type Fru-1,6-Pase
T1 construct: gene FBP2
T1 sequence (O00757 1-339): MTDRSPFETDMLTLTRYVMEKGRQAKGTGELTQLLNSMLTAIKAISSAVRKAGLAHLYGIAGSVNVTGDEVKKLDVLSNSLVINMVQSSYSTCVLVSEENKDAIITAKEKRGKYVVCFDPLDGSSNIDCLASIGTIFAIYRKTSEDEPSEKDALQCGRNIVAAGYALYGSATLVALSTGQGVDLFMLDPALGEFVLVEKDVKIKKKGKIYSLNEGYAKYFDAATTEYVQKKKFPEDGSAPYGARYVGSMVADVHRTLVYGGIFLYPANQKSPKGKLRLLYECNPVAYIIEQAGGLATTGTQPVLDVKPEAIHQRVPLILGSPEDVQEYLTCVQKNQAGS

[2] = biological target: T2, human muscle fructose-1,6-bisphosphatase (hmFru-1,6-Pase) (Homo sapiens, UniProt O00757, Q33R); assay: also coupled enzyme inhibition assay (I0.[…]); type: biochemical
T2 construct: gene FBP2; model includes residues 11–54 and 72–335
T2 sequence (O00757 2-339 Q33R): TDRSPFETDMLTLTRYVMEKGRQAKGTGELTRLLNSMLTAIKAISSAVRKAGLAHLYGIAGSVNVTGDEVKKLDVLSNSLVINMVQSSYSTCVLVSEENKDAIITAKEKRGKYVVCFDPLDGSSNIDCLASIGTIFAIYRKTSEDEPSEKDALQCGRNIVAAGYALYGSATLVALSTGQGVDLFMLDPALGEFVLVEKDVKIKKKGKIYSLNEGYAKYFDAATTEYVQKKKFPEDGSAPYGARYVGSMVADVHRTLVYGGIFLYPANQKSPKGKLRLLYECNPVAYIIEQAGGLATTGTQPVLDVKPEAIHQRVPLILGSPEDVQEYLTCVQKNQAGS

IC50 [1]: 190 nM | IC50 [2]: 3650 nM
Compound: Nc1ncnc2c1ncn2[C@@H]1O[C@H](COP(=O)(O)O)[C@@H](O)[C@H]1O [AMP]
